Target: T1, YES1 (Homo sapiens, UniProt P07947)
T1 construct: purchased Thermo Fisher Scientific (Life Technologies) SelectScreen
Assay: SelectScreen Z'LYTE
Type: biochemical
Outline: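 Compound tested in SelectScreen activity assays, Z'LYTE for CSF1R, CDK1/cyclin B and MAP2K6 and Adapta for CAMK1. ATP for CAMK1 was listed as 10, and Km app was used for CSF1R. Results are expressed in percent.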

T1 sequence (P07947 whole entry): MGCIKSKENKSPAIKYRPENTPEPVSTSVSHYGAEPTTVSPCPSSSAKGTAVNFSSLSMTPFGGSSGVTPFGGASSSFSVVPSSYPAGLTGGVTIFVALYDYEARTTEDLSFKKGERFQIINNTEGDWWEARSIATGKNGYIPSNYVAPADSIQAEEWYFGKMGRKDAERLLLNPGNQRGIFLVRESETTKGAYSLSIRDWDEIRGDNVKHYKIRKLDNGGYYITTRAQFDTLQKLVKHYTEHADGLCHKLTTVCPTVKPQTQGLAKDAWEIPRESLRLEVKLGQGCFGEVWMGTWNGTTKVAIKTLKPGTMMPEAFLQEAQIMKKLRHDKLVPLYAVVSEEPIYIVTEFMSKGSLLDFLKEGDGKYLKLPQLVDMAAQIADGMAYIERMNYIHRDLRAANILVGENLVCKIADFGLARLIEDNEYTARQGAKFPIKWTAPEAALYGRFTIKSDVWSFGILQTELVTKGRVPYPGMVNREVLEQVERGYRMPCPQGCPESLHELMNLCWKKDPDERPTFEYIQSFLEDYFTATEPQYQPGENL

CN(C(=O)CN1CCOCC1)c1ccc2sc3c(-c4cccc5c(=O)cc(N6CC7CCC(C6)O7)oc45)cccc3c2c1 [NU5455]
inhibition at 1 µM: 7.4%

Reference: PMC6934184, “Selective DNA-PKcs inhibition extends the therapeutic index of localized radiotherapy and chemotherapy” (The Journal of Clinical Investigation, 2019)
